Measured values: patent US7732617B2, “Tocopherol derivatives and uses thereof” (Brock University, priority 2007, dated 2010)

Experiments:
[1] = system: tocopherol hydroxylase; experiment: Tissue enrichment in δ-tocopherol in mice in vivo (diet feeding, GC-MS); conditions: 10 days
Procedure: Two groups of mice (n=3) were fed a chow diet enriched with δ-tocopherol (6000 mg per kg diet), with or without 500 mg per kg (R)-2-(9-(1H-1,2,4-triazol-1-yl)nonyl)-2,5,7,8-tetramethylchroman-6-ol. After 10 days on diet, mice were fasted for 5 hrs, euthanized, and tocopherol concentrations determined in plasma, liver and bile, using GC-MS procedures and d9-3′-carboxyethylchromanol as internal standard (Sontag T J et al.).
Therefore data shown in FIG. 2 are presented as the δ-tocopherol/α-tocopherol ratio, where an increase in the ratio reflects enrichment in δ-tocopherol relative to α-tocopherol.

[2] = system: HepG2/C3A; experiment: Cell protein and monolayer morphology of HepG2/C3A cultures; type: cell-based, human; conditions: 48 hours
Procedure: (§1) (R)-2-(9-(1H-1,2,4-triazol-1-yl)nonyl)-2,5,7,8-tetramethylchroman-6-ol and γ-tocopherol stock solutions were prepared in ethanol. Confluent cultures of the human heptoblastoma cell line, HepG2/C3A, were pre-incubated with varying concentrations of (R)-2-(9-(1H-1,2,4-triazol-1-yl)nonyl)-2,5,7,8-tetramethylchroman-6-ol or ethanol for 4 hours, followed by addition of 25 μM γ-tocopherol. After 48 hours, culture media was collected and analyzed for ω-oxidation products of γ-tocopherol (the 3′- and 5′-carboxychromanols) by GC-MS, using d9-3′-carboxyethylchromanol as internal standard (Sontag T J et al. (2002) J Biol Chem 277: 25290-25296).
There was no effect of (R)-2-(9-(1H-1,2,4-triazol-1-yl)nonyl)-2,5,7,8-tetramethylchroman-6-ol on cell protein and all monolayers appeared normal in morphology.

[3] = target: T1, tocopherol hydroxylase activity in HepG2/C3A cultures (Homo sapiens, UniProt P78329); experiment: Metabolism of γ-tocopherol (ω-oxidation products by GC-MS) in HepG2/C3A hepatoblastoma cultures; type: cell-based; conditions: 48 hours; for EC50: 4 hour pre-incubation, 25 μM γ-tocopherol as substrate, read-out: concentration required to inhibit tocopherol hydroxylase activity by 50% (EC50)
T1 construct: Confluent cultures of the human heptoblastoma cell line, HepG2/C3A; endogenous in cells; host or cells: HepG2/C3A
T1 sequence (P78329 5-520): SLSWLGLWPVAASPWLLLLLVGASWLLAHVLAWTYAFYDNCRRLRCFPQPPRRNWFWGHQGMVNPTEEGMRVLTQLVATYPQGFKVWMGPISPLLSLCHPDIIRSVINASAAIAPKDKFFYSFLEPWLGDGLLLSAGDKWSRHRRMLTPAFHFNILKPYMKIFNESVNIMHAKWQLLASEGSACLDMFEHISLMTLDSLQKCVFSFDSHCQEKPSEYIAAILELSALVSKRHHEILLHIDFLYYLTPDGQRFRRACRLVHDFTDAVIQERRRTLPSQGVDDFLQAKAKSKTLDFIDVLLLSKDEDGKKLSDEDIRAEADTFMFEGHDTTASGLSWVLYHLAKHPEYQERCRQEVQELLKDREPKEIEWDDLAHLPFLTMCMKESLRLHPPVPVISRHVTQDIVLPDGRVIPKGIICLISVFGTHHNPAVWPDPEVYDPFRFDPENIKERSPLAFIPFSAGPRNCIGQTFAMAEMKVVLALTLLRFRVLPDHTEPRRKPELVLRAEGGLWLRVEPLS
Procedure: as §1
The effect of the triazole compounds were tested in human hepatoblastoma cell culture as described in Example 1, i.e. using 25 μM γ-tocopherol as substrate and 4 hour pre-incubation with the synthetic inhibitors.

[4] = 500 mg per kg diet with δ-tocopherol 6000 mg per kg diet, versus control, P<0.05

SMILES	δ-tocopherol/α-tocopherol ratio in mouse liver [1, 4]	α-tocopherol status ([1]; mice, 500 mg per kg diet)	effect on cell protein [2]	morphology of monolayers [2]	EC50 [3]	Tocopherol hydroxylase activity ([3]; at compound concentrations above 10 nM, 25 μM γ-tocopherol)	δ-tocopherol/α-tocopherol ratio in bile [1, 4]
Cc1c(C)c2c(c(C)c1O)CC[C@@](C)(CCCCCCCCCn1cncn1)O2 [(R)-2-(9-(1H-1,2,4-triazol-1-yl)nonyl)-2,5,7,8-tetramethylchroman-6-ol]	doubling	no evidence that α-tocopherol status was affected	no effect	normal	~1 nM	completely abolished	
Cc1c(C)c2c(c(C)c1O)CC[C@@](C)(CCCCCCCCCn1ccnc1)O2 [(R)-2-(9-(1H-imidazol-1-yl)nonyl)-2,5,7,8-tetramethylchroman-6-ol]					1 to 2 nM		tripled
